What all share (assay type): cell-based
One experiment relates to MM1S cells. Put plainly: MTT cell proliferation assay (MM1S). The settings on record: Homo sapiens, MM1.S; MM1S multiple myeloma cells; approximately 64-72 hours incubation; 1 nM to 30 μM. How it is done:
(§1) The MTT cell proliferation assay was used to study the cytotoxic properties of the compounds. The assay was performed according to the method described by Roche Molecular Biochemicals, with minor modifications. The assay is based on the cleavage of the tetrazolium salt, MTT, in the presence of an electron-coupling reagent. The water-insoluble formazan salt produced must be solubilized in an additional step. Cells grown in a 96-well tissue culture plate were incubated with the MTT solution for approximately 4 hours. After this incubation period, a water-insoluble formazan dye formed. After solubilization, the formazan dye was quantitated using a scanning multi-well spectrophotometer (ELISA reader). […] The cells were seeded at 5,000-10,000 cells in each well of 96-well plate in 100 μL of fresh culture medium and were allowed to attach overnight. The stock solutions of the compounds were diluted in 100 μL cell culture medium to obtain eight concentrations of each test compound, ranging from 1 nM to 30 μM. […] All optical densities were measured at 490 nm using a Vmax Kinetic Microplate Reader (Molecular Devices). In most cases, the assay was performed in duplicate and the results were presented as a mean percent inhibition to the negative control±SE. The following formula was used to calculate the percent of inhibition: Inhibition (%)=(1−(ODo/OD))×100.
(§2) The compounds were tested against Z138, MM1S and 3T3 cells. The Z138 cell line is a mature B-cell acute lymphoblastic leukemia cell line derived from a patient with chronic lumphocytic leukemia. The MM1S cell line was established from the peripheral blood of a human multiple myeloma patient. 3T3 cells are standard fibroblast cells; they were originally isolated from Swiss mouse embryo tissue.
(Tetrazolium assays rely on reduction of a dye to a coloured formazan, in cell work by metabolically active cells.)

In another experiment the test system is Z138 cells. Put plainly: MTT cell proliferation assay (Z138). The following applies: Homo sapiens, Z-138, approximately 64-72 hours incubation, 1 nM to 30 μM. How it is done:
as §1, §2

For a further experiment, the system named is 3T3 cells. Put plainly: MTT cell proliferation assay (3T3). The settings on record: Mus musculus, NIH3T3; 3T3 fibroblast cells; approximately 64-72 hours incubation; 1 nM to 30 μM. The method, then:
as §1, §2

Usually IC50 stands for the concentration that inhibits the measured activity by half.

Where only a bound is given, the exact number is not on record here.

On to `NC(=O)/C(=C/n1cnc(-c2cc(C(F)(F)F)cc(C(F)(F)F)c2)n1)c1ccc(S(=O)(=O)N2CC(F)(F)C2)cc1` [Compound 111, (E)-3-(3-(3,5-bis(trifluoromethyl)phenyl)-1H-1,2,4-triazol-1-yl)-2-(4-(3,3-difluoroazetidin-1-ylsulfonyl)phenyl)acrylamide], for which the IC50 in the experiment on MM1S cells was less than 100 nM; in the experiment with Z138 cells, less than 100 nM; with 3T3 cells it was 100 to 5000 nM.

In the case of `NC(=O)/C(=C/n1cnc(-c2cc(C(F)(F)F)cc(C(F)(F)F)c2)n1)c1ccc(S(=O)(=O)N2CCC(F)(F)CC2)cc1` [Compound 105, (E)-3-(3-(3,5-bis(trifluoromethyl)phenyl)-1H-1,2,4-triazol-1-yl)-2-(4-(4,4-difluoropiperidin-1-ylsulfonyl)phenyl)acrylamide], the IC50 is less than 100 nM with MM1S cells, less than 100 nM with Z138 cells and 100 to 5000 nM in the experiment on 3T3 cells.

As for `CN1CCN(S(=O)(=O)c2ccc(/C(=C\n3cnc(-c4cc(C(F)(F)F)cc(C(F)(F)F)c4)n3)C(N)=O)cc2)CC1` [Compound 115, (E)-3-(3-(3,5-bis(trifluoromethyl)phenyl)-1H-1,2,4-triazol-1-yl)-2-(4-(4-methylpiperazin-1-ylsulfonyl)phenyl)acrylamide], the IC50 with MM1S cells, with Z138 cells and in the experiment with 3T3 cells was 100 to 5000 nM throughout.

In the case of `NC(=O)/C(=C/n1cnc(-c2cc(C(F)(F)F)cc(C(F)(F)F)c2)n1)c1ccc(S(=O)(=O)N2CCC(C(F)(F)F)CC2)cc1` [Compound 106, (E)-3-(3-(3,5-bis(trifluoromethyl)phenyl)-1H-1,2,4-triazol-1-yl)-2-(4-(4-(trifluoromethyl)piperidin-1-ylsulfonyl)phenyl)acrylamide], the IC50 was 100 to 5000 nM with MM1S cells, 100 to 5000 nM with Z138 cells and greater than 30000 nM in the experiment on 3T3 cells.

For `NC(=O)/C(=C/n1cnc(-c2cc(C(F)(F)F)cc(C(F)(F)F)c2)n1)c1ccc(S(=O)(=O)N2CC[C@@H](F)C2)cc1` [Compound 117, (R,E)-3-(3-(3,5-bis(trifluoromethyl)phenyl)-1H-1,2,4-triazol-1-yl)-2-(4-(3-fluoropyrrolidin-1-ylsulfonyl)phenyl)acrylamide], the results for the IC50 in the experiment with MM1S cells, with Z138 cells and in the experiment with 3T3 cells were less than 100 nM, less than 100 nM and 100 to 5000 nM, respectively.

On to `NC(=O)/C(=C/n1cnc(-c2cc(C(F)(F)F)cc(C(F)(F)F)c2)n1)c1cccc(S(=O)(=O)N2CCCC2)c1` [Compound 125, (E)-3-(3-(3,5-bis(trifluoromethyl)phenyl)-1H-1,2,4-triazol-1-yl)-2-(3-(pyrrolidin-1-ylsulfonyl)phenyl)acrylamide], for which the IC50 in the experiment on MM1S cells is 100 to 5000 nM; in the experiment with Z138 cells, 100 to 5000 nM; in the experiment on 3T3 cells it was greater than 30000 nM.

As to `NC(=O)/C(=C/n1cnc(-c2cc(C(F)(F)F)cc(C(F)(F)F)c2)n1)c1cccc(S(=O)(=O)N2CCOCC2)c1` [Compound 119, (E)-3-(3-(3,5-bis(trifluoromethyl)phenyl)-1H-1,2,4-triazol-1-yl)-2-(3-(morpholinosulfonyl)phenyl)acrylamide], the IC50 was 100 to 5000 nM in the experiment with MM1S cells, 100 to 5000 nM with Z138 cells and greater than 30000 nM in the experiment on 3T3 cells.

On to `NC(=O)/C(=C/n1cnc(-c2cc(C(F)(F)F)cc(C(F)(F)F)c2)n1)c1cccc(S(=O)(=O)N2CCC(F)(F)C2)c1` [Compound 128, (E)-3-(3-(3,5-bis(trifluoromethyl)phenyl)-1H-1,2,4-triazol-1-yl)-2-(3-(3,3-difluoropyrrolidin-1-ylsulfonyl)phenyl)acrylamide], for which the IC50 in the experiment with MM1S cells was greater than 30000 nM; in the experiment with Z138 cells, 100 to 5000 nM; with 3T3 cells, 100 to 5000 nM.

With `NC(=O)/C(=C/n1cnc(-c2cc(C(F)(F)F)cc(C(F)(F)F)c2)n1)c1cccc(S(=O)(=O)N2CC(F)C2)c1` [Compound 123, (E)-3-(3-(3,5-bis(trifluoromethyl)phenyl)-1H-1,2,4-triazol-1-yl)-2-(3-(3-fluoroazetidin-1-ylsulfonyl)phenyl)acrylamide], the IC50 is 100 to 5000 nM with MM1S cells, 100 to 5000 nM with Z138 cells and greater than 30000 nM with 3T3 cells.

For the origin of these results see patent publication US10526295B2, “Nuclear transport modulators and uses thereof” (Karyopharm Therapeutics Inc., priority 2015, dated 2020).
